In patent publication US11780901B2, “Analogues of parathyroid hormone (1-34) that function as agonists of the parathyroid hormone receptor-1 and display modified activity profiles” (Wisconsin Alumni Research Foundation, priority 2013, dated 2023):
Changes are numbered by the printed parent chain.

Columns and labels:
PTHR2 [1] = target: T1, PTHR2 (Homo sapiens, UniProt P49190); assay: Wash-out assay, duration of PTHR2 activation; type: cell-based; design: expressed in transfected cells; host or cells: cells stably expressing PTHR2; details: for Normalized ligand-off AUC: after washout
Description: Duration of activation for PTHR1 and PTHR2. To assess the duration of PTHR1 and PTHR2 activation induced by α/β-peptides 14 and 15, the time course of cAMP production by each receptor was examined after stimulation with an agonist and subsequent washing of the cells to remove unbound peptide (wash-out assay). […] During the initial “ligand-on” phase, cells stably expressing PTHR1 or PTHR2 were stimulated with an agonist concentration corresponding to ˜EC80; the medium contained D-luciferin. […] After the addition of fresh medium containing D-luciferin, the luminescence decay is measured. The area under the “ligand-off” curve (AUC) reflects the duration of signaling, which may be related to residence time of the agonist on the receptor but could have other origins at the molecular level.

PTHR1 [2] = target: T2, PTHR1 (Homo sapiens, UniProt Q03431); assay: PTHR1 activation, cAMP production (GloSensor) in HEK293 cells; type: cell-based; design: expressed in transfected cells
T2 sequence (Q03431 27-593): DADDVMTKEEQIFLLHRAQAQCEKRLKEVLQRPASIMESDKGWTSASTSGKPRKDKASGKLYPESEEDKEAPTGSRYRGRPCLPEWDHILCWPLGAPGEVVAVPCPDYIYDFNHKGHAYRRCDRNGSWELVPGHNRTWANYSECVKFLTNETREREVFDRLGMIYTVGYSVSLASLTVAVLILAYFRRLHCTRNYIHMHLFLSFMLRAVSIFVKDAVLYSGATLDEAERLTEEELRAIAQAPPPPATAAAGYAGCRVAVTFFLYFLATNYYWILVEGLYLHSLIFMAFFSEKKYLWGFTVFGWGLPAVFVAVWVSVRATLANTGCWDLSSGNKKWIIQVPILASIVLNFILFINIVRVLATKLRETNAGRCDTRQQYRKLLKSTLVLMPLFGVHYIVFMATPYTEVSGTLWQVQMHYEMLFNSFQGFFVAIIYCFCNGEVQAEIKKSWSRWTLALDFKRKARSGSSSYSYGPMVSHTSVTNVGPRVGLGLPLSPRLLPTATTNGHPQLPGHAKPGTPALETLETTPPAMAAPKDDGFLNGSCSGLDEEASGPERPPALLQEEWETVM

PTHR1-L2891 = target: T3, PTHR1-L2891 (Homo sapiens, UniProt Q03431, L289I); assay: Activation of PTHR1 mutant PTHR1-L2891; type: cell-based; details: data not shown
T3 construct: expressed in transfected cells
T3 sequence (Q03431 27-593 L289I): T2 sequence (Q03431 27-593) with L263I
Description: (§1) Reciprocal point mutations of PTHR1 were investigated to see if they would enhance the signaling activity of PTHR2-selective agonists.

PTHR1-1363Y = target: T4, PTHR1-1363Y (Homo sapiens, UniProt Q03431, I363Y); assay: Activation of PTHR1 mutant PTHR1-1363Y; type: cell-based; details: data not shown
T4 construct: expressed in transfected cells
T4 sequence (Q03431 27-593 I363Y): T2 sequence (Q03431 27-593) with I337Y
Description: as §1

PTHR2 [3] = target: T1, PTHR2; assay: PTHR2 activation, cAMP production (GloSensor) in HEK293 cells; type: cell-based; design: expressed in transfected cells; details: HEK293
Procedure, shortened: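 HEK293 cells stably expressing PTHR2; receptor activation read as cAMP production by GloSensor luminescence. Dose-response curves fit with a four-parameter sigmoidal equation; data are mean±s.e.m. of four independent measurements.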

PTHR1 [4] = target: T2, PTHR1; assay: Functional selectivity (Gs activation/cAMP production vs βarr recruitment); type: cell-based; design: expressed in transfected cells; host or cells: cells stably expressing PTHR1; details: cAMP activation vs βarr1 and βarr2 recruitment, relative to PTH (1-34)
Method: More specifically, the initial studies that yielded the compounds disclosed and claimed herein were conducted to determine whether there is a correlation between βarr recruitment and receptor residence time of a PTHR1 agonist. The initial studies were thus conducted in two steps. First, the functional selectivity (Gs activation as indicated by cAMP production vs. βarr recruitment) of several PTHR1 agonists that display substantial differences in signaling duration were evaluated. Second, novel PTHR1 agonists were designed that have high functional selectivity and evaluated the signaling duration of these biased agonists.
The functional selectivity of BA058 is more significant than that of PTHrP. […] LA-PTH is a long-acting PTH analog. […] The middle panels in FIG. 2 are graphs depicting, from left-to-right: βarr1 and βarr2 recruitment, presented as normalized BRET signals (bioluminescence resonance energy transfer) as a function of the log of the peptide concentration, and cAmp activation presented as normalized RLU signals (relative light units) as a function of the log of the peptide concentration. Red=PTH. Orange=LA=LA−PTH. Blue=BA058. Green=PTHrP. (BRET assays are well known and suitable kits are available commercially. See, for example, Promega's “NanoBRET” kits, catalogs nos. N1821 and N1811; Promega Corporation, Fitchburg, Wis.). The table at the bottom of FIG. 2 presents the pEC50 and Emax values for the […] and βarr2 recruitment and cAMP activation. FIG. 3 presents the data for the bias of the activity—either toward βarr recruitment or cAMP activation.
Incorporating (R*)-β^2Leu/(D)-Leu at the 7th position or (R*)-β^2Nle at the 8th position leads to high Gs-biased agonism. […] (D)-Nle is poorly tolerated at the 8th position for both cAMP signaling and βarr recruitment. The top panels in FIG. 5 are graphs depicting, from left-to-right: βarr1 and βarr2 recruitment, presented as normalized BRET signals as a function of the log of the peptide concentration, and cAmp activation presented as normalized RLU signals as a function of the log of the peptide concentration. […]

R^0 state of PTHR1 = target: T5, R^0 state of PTHR1 (Homo sapiens, UniProt Q03431); details: relative to PTH (1-34); cited from earlier work
T5 construct: expressed in transfected cells; host or cells: COS-7, transient; membranes
T5 sequence (Q03431 27-593): T2 sequence (Q03431 27-593)

T1 sequence (P49190 25-550): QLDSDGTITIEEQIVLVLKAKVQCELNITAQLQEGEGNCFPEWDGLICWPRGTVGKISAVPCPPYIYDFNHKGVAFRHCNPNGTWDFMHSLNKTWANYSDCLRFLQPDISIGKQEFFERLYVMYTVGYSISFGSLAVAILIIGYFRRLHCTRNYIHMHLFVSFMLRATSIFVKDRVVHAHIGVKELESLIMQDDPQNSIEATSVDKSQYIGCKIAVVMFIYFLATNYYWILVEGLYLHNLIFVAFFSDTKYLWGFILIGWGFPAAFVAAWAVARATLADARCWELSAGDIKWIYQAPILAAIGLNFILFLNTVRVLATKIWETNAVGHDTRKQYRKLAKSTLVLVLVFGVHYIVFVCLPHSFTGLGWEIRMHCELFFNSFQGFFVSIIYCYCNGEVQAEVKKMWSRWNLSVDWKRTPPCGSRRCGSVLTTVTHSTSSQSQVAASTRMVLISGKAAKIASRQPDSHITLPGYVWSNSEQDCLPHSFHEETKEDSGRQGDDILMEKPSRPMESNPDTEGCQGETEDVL

Molecule | Normalized ligand-on Emax (PTHR2 [1]; PTHR2, agonist at ~EC80, PTH(1-34)-NH2 = 100) | PTHR1 agonist activity (in words) (PTHR1 [2]; wild-type PTHR1) | agonist activity at PTHR1-L2891 (in words) (PTHR1-L2891) | agonist activity at PTHR1-1363Y (in words) (PTHR1-1363Y) | Normalized ligand-off AUC (PTHR2 [1]; PTHR2, PTH(1-34)-NH2 = 100, listed as α/β-peptide 1) | Normalized ligand-off AUC (PTHR2 [1]; PTHR2, PTH(1-34)-NH2 = 100, listed as α/β-peptide 15) | Emax (PTHR2 [1]; read-out: Normalized ligand-on Emax) [%] | Emax (PTHR1 [2]; HEK293) [%] | PTHR1 agonist potency decline (PTHR1 [2]; relative to PTH(1-34)-NH2) [fold] | Emax (PTHR2 [3]) [%] | signaling bias / functional selectivity (in words) (PTHR1 [4]) | R0 affinity (in words) (R^0 state of PTHR1)
TIP39-NH2: tuberoinfundibular peptide of 39 residues, naturally PTHR2-selective agonist [reference compound] | 99 ± 1 | does not activate | very weak agonist | very weak agonist |  |  |  |  |  |  |  | 
CC[C@H](C)[C@H](NC(=O)[C@H](CCC(=O)O)NC(=O)[C@H](CO)NC(=O)[C@@H](CNC(=O)[C@@H](N)CO)C(C)C)C(=O)N[C@@H](CCC(N)=O)CC(=O)N[C@@H](CC(C)C)C(=O)N[C@@H](CCSC)C(=O)N[C@@H](Cc1c[nH]cn1)C(=O)N[C@@H](CC(N)=O)C(=O)N[C@@H](CC(C)C)C(=O)NCC(=O)N[C@@H](CCCCN)C(=O)N[C@@H](Cc1c[nH]cn1)C(=O)N[C@@H](CC(C)C)C(=O)N[C@@H](CC(N)=O)C(=O)N[C@@H](CO)C(=O)N[C@@H](CCSC)C(=O)N[C@@H](CCC(=O)O)C(=O)N[C@@H](CCCNC(=N)N)C(=O)N[C@H](C(=O)N[C@@H](CCC(=O)O)C(=O)N[C@@H](Cc1c[nH]c2ccccc12)C(=O)N[C@@H](CC(C)C)C(=O)N[C@@H](CCCNC(=N)N)C(=O)N[C@@H](CCCCN)C(=O)N[C@@H](CCCCN)C(=O)N[C@@H](CC(C)C)C(=O)N[C@@H](CCC(N)=O)C(=O)N[C@@H](CC(=O)O)C(=O)N[C@H](C(=O)N[C@@H](Cc1c[nH]cn1)C(=O)N[C@@H](CC(N)=O)C(=O)N[C@@H](Cc1ccccc1)C(N)=O)C(C)C)C(C)C [Ligand 15] |  |  |  | even less susceptible to activation | 197 ± 16 | more prolonged signaling | 103 ± 1 | 79 ± 6 | ~100 | 104 ± 2 |  | 
LA-PTH: long-acting PTH analog (AVAEIQLMHQRAKWIQDARRRAFLHKLIAEIHTAEI; Long-acting (LA)-PTH, a parathyroid hormone analog) |  |  |  |  |  |  |  |  |  |  | biased toward βarr1 and βarr2 recruitment relative to cAMP activation | high R0 affinity
